These results are taken from paper PMC2844127 (Journal of medicinal chemistry, 2010).

The target in one test is dopamine rD3 receptor (Rattus norvegicus, UniProt P19020). To be noted: ratio of Ki D2L to Ki D3.
Another test has as its target dopamine hD3 receptor (Homo sapiens, UniProt P35462). The experiment in a line: Stimulation of [35S]GTPγS binding, hD3 receptors expressed in CHO cells. In kind it is biochemical. To be noted: read-out: %Emax, CHO-D3.
A further test deals with 6-OHDA lesioned rats. The experiment in a line: Rotational experiment with 6-OHDA lesioned rats. It counts as in vivo, rat.

Sequence of dopamine rD3 receptor (P19020 whole entry): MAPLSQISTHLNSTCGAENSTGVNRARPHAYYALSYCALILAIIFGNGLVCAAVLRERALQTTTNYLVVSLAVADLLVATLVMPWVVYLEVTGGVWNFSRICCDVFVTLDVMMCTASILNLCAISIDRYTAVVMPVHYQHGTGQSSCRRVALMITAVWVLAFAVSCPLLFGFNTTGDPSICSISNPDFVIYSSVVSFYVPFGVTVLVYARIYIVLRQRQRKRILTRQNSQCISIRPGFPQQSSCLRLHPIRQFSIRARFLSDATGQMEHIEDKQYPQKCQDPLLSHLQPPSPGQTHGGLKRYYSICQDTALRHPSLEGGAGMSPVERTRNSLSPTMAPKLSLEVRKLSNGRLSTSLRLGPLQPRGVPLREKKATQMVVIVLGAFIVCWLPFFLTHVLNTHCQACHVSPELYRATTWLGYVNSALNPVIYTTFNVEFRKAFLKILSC
Sequence of dopamine hD3 receptor (P35462 whole entry): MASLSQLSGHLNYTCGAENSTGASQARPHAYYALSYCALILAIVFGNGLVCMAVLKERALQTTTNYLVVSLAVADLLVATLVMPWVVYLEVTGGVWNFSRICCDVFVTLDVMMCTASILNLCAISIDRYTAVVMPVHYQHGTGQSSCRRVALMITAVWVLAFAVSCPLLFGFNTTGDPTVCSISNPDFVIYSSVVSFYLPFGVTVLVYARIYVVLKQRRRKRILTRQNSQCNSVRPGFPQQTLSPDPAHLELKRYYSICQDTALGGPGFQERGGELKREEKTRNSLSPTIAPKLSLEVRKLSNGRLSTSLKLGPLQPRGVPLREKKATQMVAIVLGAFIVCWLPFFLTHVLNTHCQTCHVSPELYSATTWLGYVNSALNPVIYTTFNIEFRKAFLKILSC

As to `CCCN(CCN1CCN(Cc2ccc(O)c3ncccc23)CC1)C1CCc2c(O)cccc2C1` (centres unmarked) [Compound 12b, 5-((4-(2-((5-hydroxy-1,2,3,4-tetrahydronaphthalen-2-yl)(propyl)amino)ethyl)piperazin-1-yl)methyl)quinolin-8-ol], the D2L/D3 at dopamine rD3 receptor is 11.2. In general, Emax refers to the maximal effect, on the per cent scale that the assay sets. For `CCCN(CCC)CCc1cccc2c1CC(=O)N2` [Ropinirole], on dopamine hD3 receptor, the Emax was determined as 66.6 ± 8.1%. Besides, in the test on 6-OHDA lesioned rats (5 µMol/kg), the rotational activity entry is “much less rotations with shorter duration of action”. Consider `CCCN(CCN1CCN(Cc2ccc(O)c3ncccc23)CC1)C1CCc2ccc(O)cc2C1` (centres unmarked) [Compound 12a, 5-((4-(2-((7-hydroxy-1,2,3,4-tetrahydronaphthalen-2-yl)(propyl)amino)ethyl)piperazin-1-yl)methyl) quinolin-8-ol], for which the D2L/D3 on dopamine rD3 receptor is 15.4. On to `CN1CCc2cccc3c2[C@H]1Cc1ccc(O)c(O)c1-3` [apomorphine], for which the “average rotation (contralateral)” value in the test on 6-OHDA lesioned rats (0.05 mg/kg, 21 days post lesion, recorded for 30 min, four rats) was greater than 250.
